In US20210388002A1, “DIMETHOXYBENZENE COMPOUND ANALOGS, METHODS FOR ANALYZING SAID COMPOUNDS AND STANDARD PRODUCTS OF SAID COMPOUNDS” (TAIHO PHARMACEUTICAL CO., LTD., priority 2018, published 2021):

Assay: solubility in water and organic solvents
Type: physicochemical
Settings: free form; water, highly water-soluble organic solvents, highly fat-soluble organic solvents

COc1cc(C#Cc2nn([C@H]3CCNC3)c3ncnc(N)c23)cc(OC)c1 [Compound B, (S)-3-((3,5-dimethoxyphenyl)ethynyl)-1-(pyrrolidin-3-yl)-1H-pyrazolo[3,4-d]pyrimidin-4-amine]
solubility: easily soluble
